From PubChem BioAssay AID256 (DTP/NCI, 2004)
Values joined by “and” are separate entries in the source; they are usually repeats but may differ in a detail not shown here. Equal values may be shown once. Toxic doses and inconclusive results are not listed. Rule for the calls: active = survival T/C of 150% or more; inactive = T/C below 125% in these data.

Test system: CD2F1 mice, L1210 leukemia ip, survival T/C
Assay: NCI In Vivo Anticancer Drug Screen. Data for tumor model L1210 Leukemia (intraperitoneal) in CD2F1 (CDF1) mice
Conditions: higher = longer survival
Summary of the method: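 In this screen, transplantable tumors were grown in mice given either the compound or its vehicle. Results were expressed as the treated measurement relative to the control measurement.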

[1] = endpoint: mean survival time, dose: 50.0 mg/kg/injection, schedule: Q04DX002 (ip), vehicle: saline with Tween-80
[2] = endpoint: mean survival time, dose: 100.0 mg/kg/injection, schedule: Q04DX002 (ip), vehicle: saline with Tween-80
[3] = endpoint: mean survival time, dose: 25.0 mg/kg/injection, schedule: Q04DX003 (ip), vehicle: saline with Tween-80
[4] = endpoint: mean survival time, dose: 50.0 mg/kg/injection, schedule: Q04DX003 (ip), vehicle: saline with Tween-80
[5] = endpoint: mean survival time, dose: 100.0 mg/kg/injection, schedule: Q04DX003 (ip), vehicle: saline
[6] = endpoint: mean survival time, dose: 100.0 mg/kg/injection, schedule: Q01DX001 (ip), vehicle: saline
[7] = endpoint: mean survival time, dose: 200.0 mg/kg/injection, schedule: Q01DX001 (ip), vehicle: saline
[8] = endpoint: mean survival time, dose: 100.0 mg/kg/injection, schedule: Q01DX009 (ip), vehicle: saline with Tween-80
[9] = endpoint: mean survival time, dose: 200.0 mg/kg/injection, schedule: Q01DX009 (ip), vehicle: saline with Tween-80
[10] = endpoint: mean survival time, dose: 400.0 mg/kg/injection, schedule: Q01DX009 (ip), vehicle: saline with Tween-80
[11] = endpoint: median survival time, dose: 12.5 mg/kg/injection, schedule: Q01DX005 (ip), vehicle: distilled water + Tween-80
[12] = endpoint: median survival time, dose: 25.0 mg/kg/injection, schedule: Q01DX005 (ip), vehicle: distilled water + Tween-80
[13] = endpoint: median survival time, dose: 50.0 mg/kg/injection, schedule: Q01DX005 (ip), vehicle: distilled water + Tween-80
[14] = endpoint: median survival time, dose: 100.0 mg/kg/injection, schedule: Q01DX005 (ip), vehicle: distilled water + Tween-80
[15] = endpoint: median survival time, dose: 200.0 mg/kg/injection, schedule: Q01DX005 (ip), vehicle: distilled water + Tween-80
[16] = endpoint: mean survival time, dose: 25.0 mg/kg/injection, schedule: Q01DX009 (ip), vehicle: saline with Tween-80
[17] = endpoint: mean survival time, dose: 50.0 mg/kg/injection, schedule: Q01DX009 (ip), vehicle: saline with Tween-80
[18] = endpoint: mean survival time, dose: 200.0 mg/kg/injection, schedule: Q04DX002 (ip), vehicle: saline with Tween-80
[19] = endpoint: mean survival time, dose: 400.0 mg/kg/injection, schedule: Q04DX002 (ip), vehicle: saline with Tween-80
[20] = endpoint: mean survival time, dose: 100.0 mg/kg/injection, schedule: Q04DX003 (ip), vehicle: saline with Tween-80
[21] = endpoint: mean survival time, dose: 200.0 mg/kg/injection, schedule: Q04DX003 (ip), vehicle: saline with Tween-80
[22] = endpoint: mean survival time, dose: 400.0 mg/kg/injection, schedule: Q04DX003 (ip), vehicle: saline with Tween-80
[23] = endpoint: mean survival time, dose: 100.0 mg/kg/injection, schedule: Q01DX009 (ip), vehicle: saline
[24] = endpoint: mean survival time, dose: 200.0 mg/kg/injection, schedule: Q01DX009 (ip), vehicle: saline
[25] = endpoint: mean survival time, dose: 100.0 mg/kg/injection, schedule: Q01DX001 (ip), vehicle: saline with Tween-80
[26] = endpoint: mean survival time, dose: 200.0 mg/kg/injection, schedule: Q01DX001 (ip), vehicle: saline with Tween-80
[27] = endpoint: mean survival time, dose: 400.0 mg/kg/injection, schedule: Q01DX001 (ip), vehicle: saline with Tween-80
[28] = endpoint: mean survival time, dose: 12.5 mg/kg/injection, schedule: Q01DX009 (ip), vehicle: saline with Tween-80

Measured: T/C

c1ccc(Sc2ccncc2)cc1
inactive: endpoint: mean survival time, dose: 25.0 mg/kg/injection, schedule: Q04DX002 (ip), vehicle: saline with Tween-80 102 % of control | [1] 91 % of control | [2] 98 % of control and 105 % of control

CC1=Nc2cc(C)c(C)cc2N2C1=CC1=C(C(=O)c3cc4ccccc4cc3C1=O)C2C (centres undefined)
inactive: [3] 97 % of control | [4] 108 % of control | [5] 110 % of control | endpoint: mean survival time, dose: 200.0 mg/kg/injection, schedule: Q04DX003 (ip), vehicle: saline 107 % of control

CC(=O)c1cc(-c2ccccc2)nc2c(Cl)cc(Cl)cc12
inactive: [6] 102 % of control | [7] 91 % of control | endpoint: mean survival time, dose: 400.0 mg/kg/injection, schedule: Q01DX001 (ip), vehicle: saline 103 % of control

c1ccc2c(c1)nnc1ccccc12
inactive: [8] 100 % of control | [9] 110 % of control | [10] 110 % of control

O=C1c2ccccc2C(=O)N1c1ccc(Cl)cc1
inactive: endpoint: mean survival time, dose: 100.0 mg/kg/injection, schedule: Q01DX001 (ip), vehicle: Klucel (hydroxypropylcellulose) (HPC) 92 % of control | endpoint: mean survival time, dose: 200.0 mg/kg/injection, schedule: Q01DX001 (ip), vehicle: Klucel (hydroxypropylcellulose) (HPC) 96 % of control | endpoint: mean survival time, dose: 400.0 mg/kg/injection, schedule: Q01DX001 (ip), vehicle: Klucel (hydroxypropylcellulose) (HPC) 107 % of control

COC(=O)C1CC23C=CCN4CC(C2C)C2(c5ccccc5NC12)C43 (centres undefined)
inactive: endpoint: mean survival time, dose: 8.0 mg/kg/injection, schedule: Q01DX001 (ip), vehicle: saline 102 % of control | endpoint: mean survival time, dose: 16.0 mg/kg/injection, schedule: Q01DX001 (ip), vehicle: saline 96 % of control | endpoint: mean survival time, dose: 32.0 mg/kg/injection, schedule: Q01DX001 (ip), vehicle: saline 102 % of control | endpoint: mean survival time, dose: 64.0 mg/kg/injection, schedule: Q01DX001 (ip), vehicle: saline 101 % of control

CC1(C)OC2C(CF)OC(n3cc(Br)c(=O)[nH]c3=O)C2O1 (centres undefined)
inactive: [11] 98 % of control | [12] 94 % of control | [13] 101 % of control | [14] 103 % of control | [15] 88 % of control

CCOC(=O)/C=C/C(=O)O.[Zn+2]
inactive: endpoint: mean survival time, dose: 3.12 mg/kg/injection, schedule: Q04DX003 (ip), vehicle: saline 100 % of control | endpoint: mean survival time, dose: 6.25 mg/kg/injection, schedule: Q04DX003 (ip), vehicle: saline 100 % of control | endpoint: mean survival time, dose: 12.5 mg/kg/injection, schedule: Q04DX003 (ip), vehicle: saline 100 % of control

CCCCCCCCCC(=O)N(C)C
inactive: endpoint: mean survival time, dose: 75.0 mg/kg/injection, schedule: Q01DX001 (ip), vehicle: saline 98 % of control | endpoint: mean survival time, dose: 150.0 mg/kg/injection, schedule: Q01DX001 (ip), vehicle: saline 104 % of control

NC(N)=NC1CCCC1
inactive: [16] 102 % of control | endpoint: mean survival time, dose: 25.0 mg/kg/injection, schedule: Q04DX003 (ip), vehicle: saline 100 % of control | [17] 100 % of control | endpoint: mean survival time, dose: 50.0 mg/kg/injection, schedule: Q04DX003 (ip), vehicle: saline 91 % of control | [5] 100 % of control

CC(=O)CC(C)=Nc1cccc(Cl)c1
inactive: [2] 98 % of control | [18] 95 % of control | [19] 95 % of control

Cc1cn(C2CC(O)C(CO)O2)c(=O)nc1NCCc1c[nH]c2ccccc12 (centres undefined)
inactive: [11] 103 % of control | [12] 103 % of control | [13] 102 % of control | [14] 103 % of control | [15] 102 % of control

Cc1ccc(/C=C2\CCOC2=O)cc1
inactive: endpoint: mean survival time, dose: 100.0 mg/kg/injection, schedule: Q04DX003 (ip), vehicle: Klucel (hydroxypropylcellulose) (HPC) 102 % of control | endpoint: mean survival time, dose: 200.0 mg/kg/injection, schedule: Q04DX003 (ip), vehicle: Klucel (hydroxypropylcellulose) (HPC) 96 % of control | endpoint: mean survival time, dose: 400.0 mg/kg/injection, schedule: Q04DX003 (ip), vehicle: Klucel (hydroxypropylcellulose) (HPC) 96 % of control

CCOC(=O)C(=CNc1ccc(C)cn1)C(=O)OCC
inactive: [8] 93 % of control | [20] 92 % of control | [9] 98 % of control | [21] 95 % of control | [10] 97 % of control | [22] 103 % of control

COc1ccc2c(c1O)C1=CC(=O)CCC13CCN(C)C3C2 (centres undefined)
inactive: [23] 103 % of control | [24] 96 % of control

CC(C)OC(=O)Nc1cccc(Cl)c1F
inactive: [25] 96 % of control | [26] 95 % of control | [27] 96 % of control

CC(CN(C)C)CN1c2ccccc2Sc2ccc(C(F)(F)F)cc21 (centres undefined)
inactive: endpoint: mean survival time, dose: 0.63 mg/kg/injection, schedule: Q04DX003 (ip), vehicle: saline 94 % of control | endpoint: mean survival time, dose: 1.25 mg/kg/injection, schedule: Q04DX003 (ip), vehicle: saline 96 % of control | endpoint: mean survival time, dose: 2.5 mg/kg/injection, schedule: Q04DX003 (ip), vehicle: saline 91 % of control | endpoint: mean survival time, dose: 6.25 mg/kg/injection, schedule: Q01DX009 (ip), vehicle: saline 91 % of control | endpoint: mean survival time, dose: 12.5 mg/kg/injection, schedule: Q01DX009 (ip), vehicle: saline 102 % of control

CN(C)[C-]=O.[C-]#[O+].[C-]#[O+].[Fe+6].[c-]1[c-][c-][cH-][c-]1
inactive: endpoint: mean survival time, dose: 75.0 mg/kg/injection, schedule: Q01DX001 (ip), vehicle: other 94 % of control | endpoint: mean survival time, dose: 150.0 mg/kg/injection, schedule: Q01DX001 (ip), vehicle: other 88 % of control

COC(=O)NC(N)=Nc1ccccc1
inactive: [28] 96 % of control | [16] 87 % of control

O=[N+]([O-])c1c(Br)sc(Br)c1[N+](=O)[O-]
inactive: [28] 97 % of control | endpoint: mean survival time, dose: 12.5 mg/kg/injection, schedule: Q04DX003 (ip), vehicle: saline with Tween-80 101 % of control | [16] 88 % of control | [3] 103 % of control | [17] 95 % of control | [4] 109 % of control

O=C(O)C(O)Cn1ccccc1=O (centres undefined)
inactive: endpoint: mean survival time, dose: 50.0 mg/kg/injection, schedule: Q01DX001 (ip), vehicle: saline 104 % of control | [6] 96 % of control | [7] 101 % of control

O=c1oc2ccc(Cl)cc2c(Nc2ccccc2)c1Cl
inactive: [25] 93 % of control | [26] 93 % of control | [27] 90 % of control

CC(C)(C)c1ccc(-c2ccncc2)cc1
inactive: [2] 87 % of control | [18] 105 % of control

COC(=O)c1cccn1C(=O)c1cc(OC)c(OC)cc1[N+](=O)[O-]
inactive: [1] 96 % of control | [2] 92 % of control and 93 % of control | [18] 96 % of control | [19] 89 % of control

Nc1c(Cl)cc2c(c1Cl)Cc1c-2cc(Br)c(N)c1Br
inactive: endpoint: mean survival time, dose: 12.5 mg/kg/injection, schedule: Q01DX001 (ip), vehicle: saline with Tween-80 100 % of control | endpoint: mean survival time, dose: 25.0 mg/kg/injection, schedule: Q01DX001 (ip), vehicle: saline with Tween-80 97 % of control | endpoint: mean survival time, dose: 50.0 mg/kg/injection, schedule: Q01DX001 (ip), vehicle: saline with Tween-80 97 % of control | [25] 101 % of control

N/C(=N\N=C1CCCC1)N[N+](=O)[O-]
inactive: [20] 96 % of control | [21] 102 % of control | [22] 104 % of control

CC1CN(c2ccccc2)NC1=O (centres undefined)
inactive: [23] 104 % of control | [24] 105 % of control | endpoint: mean survival time, dose: 400.0 mg/kg/injection, schedule: Q01DX009 (ip), vehicle: saline 102 % of control
